For the assay, the system named is Human Dermal Microvascular Endothelial Cell (HDMEC). Put plainly: Promoting activity in vitro on human dermal microvascular endothelial cell (HDMEC) proliferation. Type of assay: cell-based. Particulars: positive control: bFGF solution 0.1 μg/mL medium. How it is done: The wound healing-promoting activity of test compounds were investigated in terms of the promotion activity on HDMEC proliferation in the following manner. As a HDMEC, normal adult dermal microvascular endothelial cells (Hybridoma (1996): Vol. 15 (4), pp 279-288) were used in this study.
A suspension of HDMEC mentioned above (2×10^4 cells/mL; Cryo HMVEC-Ad; trademark registered by Cambrex Inc.) were seeded on 48-well plate (250 μL/well). The cells were cultured in a proliferation medium (BletKit EGM-2-MV; trademark registered by Cambrex Inc.) for one day. After substituting an assay medium (450 μL, bFGF-, EGF- and VEGF-free BletKit EGM-2-MV; trademark registered by Cambrex Inc.) for the proliferation medium, a dimethylsulfoxide solution of the test compound (0.1 v/v %, 50 μL) was added to each well and the cells were cultured for 96 hours. After culturing, the assay medium was removed by aspiration and the residual cells were suspended in Isoton II solution (500 μL; Beckmann-Coulter Ltd.) containing 0.05% trypsin and 0.02% ethylenediaminetetraacetic acid. The suspension was diluted (11-fold) with Isoton II solution (5 mL) and the number of cells were counted by Coulter-Counter Z1 (Beckmann-Coulter Ltd.).
As a negative control group, HDMEC was cultured in the same manner, but in the absence of the test compound, as described above. […]

Values joined by “and” are separate entries in the source; they are usually repeats but may differ in a detail not shown here. Equal values may be shown once.

Consider “Positive control: bFGF solution (0.1 μg/mL medium) used instead of the test compound solution; basic fibroblast growth factor”, for which the “Number of cells after 96 hours” value is 1.31 × 10^4 cells and 1.81 × 10^4 cells and 2.03 × 10^4 cells. Besides, the “Number of cells after 96 hours” value (listed as positive control) is 1.95 × 10^4 cells.

Source of the values: US8809360B2, “Use of a pyridine compound for the preparation of a medicament for the treatment of skin lesions” (Mitsubishi Tanabe Pharma Corporation, priority 2004, dated 2014).
